According to article PMC5487684, “Safety, Pharmacokinetics, and Antiviral Activity of a Novel HIV Antiviral, ABX464, in Treatment-Naive HIV-Infected Subjects in a Phase 2 Randomized, Controlled Study” (Antimicrobial Agents and Chemotherapy, 2017):

Assays:
HIV replication in PBMCs = test system: HIV replication in PBMCs; set-up: method as in PMID 25889234; conditions: in vitro; cited from earlier work
[1] = Plasma pharmacokinetics of ABX464 and ABX464-NGlc in HIV-infected subjects; assay type: in vivo, human
Protocol: Plasma samples were analyzed for ABX464 and ABX464-NGlc using validated bioanalytical methods by Atlanbio (Saint Nazaire, France) according to good laboratory practices. Pharmacokinetic parameters were calculated by noncompartmental analysis (NCA), using Phoenix WinNonlin software (Pharsight Corporation) running on a personal computer. On day 1, the following PK parameters were generated: Cmax, the time to Cmax (Tmax), lag time (tlag), elimination rate constant (kel), area under the concentration-time curve (AUC) from time zero to time t (AUC0–t), AUC from time zero to infinity (AUC0–∞), apparent clearance (CL/F), and apparent volume of distribution (V/F). On the other days of PK assessment, only Cmax, Tmax, tlag, kel, and AUC0–t were generated. The secondary analysis concerned pharmacodynamic (PD) activity, as expressed by CD4 and CD8 levels and viral load across time. The HIV viral load was analyzed in the prequalified individual local study center laboratories. CD4 and CD8 cell counts were also determined in the local study center laboratories. With respect to the viral load, changes in the log-transformed viral load values between 24 h postdose and predose were calculated on each day, and a comparison between each dose level and pooled placebo data was made. Moreover, the rate of success (defined as a decrease in the viral load value of at least 0.5 log) was evaluated for each treatment (including placebo) and compared between treatments.

[2] = test system: HIV replication in macrophages; set-up: method as in PMID 25889234; conditions: in vitro; cited from earlier work
HIV-1 = conditions: cited from earlier work

O=C(O)[C@H]1O[C@@H](N(c2ccc(OC(F)(F)F)cc2)c2ccc3cccc(Cl)c3n2)[C@H](O)[C@@H](O)[C@@H]1O [ABX464-NGlc, ABX464-N-glucuronide]
Antiviral effect on HIV replication in PBMCs (HIV replication in PBMCs): no antiviral effect | half-life (t1/2) ([1]; HIV-infected subjects, oral): about 100 h | Bioavailability of ABX464-NGlc in human subjects relative to mice ([1]; human, in vivo): approximately 15 fold | Cmax of the metabolite relative to that of the parent compound ([1]; plasma): approximately 160 fold | 50% inhibitory concentration in macrophage culture relative to parent drug [2]: same 50% inhibitory concentration as the parent drug | Inhibition of HIV replication in macrophage culture [2]: able to inhibit HIV replication

Cn1cc(-c2cccc3cc(C(=O)N=C(N)N)ccc23)cn1
Decrease in mean total HIV-1 DNA copy number in monocytes (HIV-1; 10 days of treatment): 2.7 fold | Reduction in mean total HIV-1 DNA copy number in monocytes (HIV-1; 10 days of treatment): 63% | Effect on HIV viral load in plasma or CD4 T cell count (HIV-1): no significant effect | Treated individuals with significant reductions in total HIV-1 DNA levels within monocytes (HIV-1): three of the six
